This note sets out measurements from ChEMBL document CHEMBL3507680, “University of Dundee, Gates Library screen for HepG2 cell viability”.

This data set is described as follows: Human HepG2 cell viability assay in 384 well format. The format is toxicity, cell-based. Details: dose 125 nL, time 70.5 hour; cytotoxicity at 70.5 h: concentration not given beside the values. To be noted: HepG2 cells, read-out: Inhibition.
Consider `Cn1ccc(-c2cc(C(=O)N3CCC(O)CC3)c3ccccn23)n1`, for which the cytotoxicity at 70.5 h is 29.8%.
Consider `CC(Cn1ccnc1)NCc1csc2c1CCCC2` (stereo not drawn), for which the cytotoxicity at 70.5 h was -0.368%.
The same measure for `Cc1cc(C)n(Cc2cc(C(=O)N3CCCCC3c3nccs3)n[nH]2)n1` (stereo not drawn): 8.98%; for `CC(C)C1CN(c2ncccn2)CCC(=O)N1CC1CC1` (stereo not drawn): 36.1%.
The same measure for `CSc1ccccc1NC(=O)CCC(=O)N(C)C1CCN(C)CC1`: -0.551%; for `O=C(NCc1ccc(Cl)s1)c1cc(CN2CCCC(O)C2)on1` (stereo not drawn): 19.4%; for `COC(=O)c1ccc2ccn(CC3COCCO3)c(=O)c2c1` (stereo not drawn): -8.18%.
The same measure for `Nc1ccnc(N2CCCC(CO)(Cc3cccc(Cl)c3)C2)n1` (stereo not drawn): 6.17%; for `CCc1noc(CNc2nc(-c3cccnc3)nc3c2CCNCC3)n1`: -14.3%; for `COc1ccc(Cc2ncc3c(n2)CN(C(=O)CO)C3)cc1`: -6.42%.
`Cc1nc(C(C)Nc2nc3c(s2)c(C)nn3C)n[nH]1` (stereo not drawn): the cytotoxicity at 70.5 h was 15.8%.
The same measure for `CCN1CCC(CC(=O)NCC(O)c2ccc3ccccc3c2)CC1` (stereo not drawn): 9.43%.
In the case of `CCN(C)C(=O)c1ccc(N(C)Cc2cc(-c3ccncc3)no2)nc1` it was -2.26%; in that of `CC(C)Oc1cc(N2CCC(C(N)=O)CC2)nc(N)n1`, -3.58%.
The same measure for `CS(=O)(=O)Nc1ccc(-n2c(CCCO)nc3ccccc32)cn1`: 0.667%; for `CCCn1ncc(C(=O)N2CCC(N3CCCCC3)CC2)c1C`: -11.6%; for `CCc1ncc(CN2CCN(c3cc(NC4CC4)nc(N)n3)CC2)cn1`: -15%.
As for `COc1ccc(CN(C)c2ccc(-c3nccn3C)nn2)cc1OC`, the cytotoxicity at 70.5 h is -5.32%.
In the case of `COc1cc(Cl)cc(CN2CCCC(N3CCOCC3)C2)c1OC` (stereo not drawn) it was -5.79%; in that of `CCn1c(CN(C)C)nnc1C1CCN(Cc2ccccn2)CC1`, 20.6%.
In the case of `O=c1n(Cc2ccccn2)nc(C2CCNCC2)n1Cc1ccccc1` it was 1.51%.
The same measure for `Cn1nc(CN2CCCCC(N)C2)c2c(Cl)cccc21` (stereo not drawn): 36.9%.
On to `Cc1noc(C)c1CN1C(=O)[C@H]2CC[C@@H]1CN(Cc1ccc(Cl)cc1)C2`, for which the cytotoxicity at 70.5 h worked out at 8.52%.
In the case of `Cc1nc(C2CCN(C(=O)COC(C)C)CC2)cc(N2CCOCC2)n1` it was -8.64%.
The same measure for `COc1cc(C)ccc1C(=O)N1C[C@@H](CN(C)CCO)[C@@H](CO)C1`: 4.4%; for `CCC[C@@H]1CN(C(=O)c2ccccc2C(C)=O)C[C@H]1N(C)C`: 7.99%; for `CCOCCC(=O)N1CCCN(c2ccccc2C)CC1`: -4.5%.
In the case of `O=C(NCc1ccncc1)C1CN(c2nc3ccccc3s2)CCN1` (stereo not drawn) it was -0.512%; in that of `CN(C)CCNC(=O)c1ccc(OC2CCN(CC3CC3)CC2)c(Cl)c1`, 0.798%.
As to `Cc1nc2cc(CNC(=O)C3CC(=O)N(CCN(C)C)C3)ccc2n1C` (stereo not drawn), the cytotoxicity at 70.5 h is -2.99%.
The same measure for `COCCN(C)C[C@@H]1CN(C(=O)C(C)(C)c2ccccc2)C[C@@H]1CO`: 12.6%; for `CS(=O)(=O)NC1CCN(Cc2ccc(OCc3ccccn3)cc2)CC1`: -5.51%.
The same measure for `Fc1ccccc1-c1cc(N2[C@@H]3CC[C@H]2CNC3)n2nccc2n1`: -3.67%.
The same measure for `CCOc1ccccc1CC(=O)N1C[C@@H](C(=O)O)[C@H](c2ccncc2)C1`: 37.4%.
For the compound `CCNC(=O)[C@@H]1C[C@@H](NC(=O)c2ccc(C)s2)CN1Cc1ccccn1`, the cytotoxicity at 70.5 h was -2.7%.
The same measure for `Cc1ncsc1CCn1ccnc1-c1cc2n(n1)CCCNC2`: 5.55%.
In the case of `CN(C)c1ncnc2c1CCN(S(=O)(=O)c1cccc3nsnc13)C2` it was -5.63%.
The same measure for `COc1cccc(Cl)c1C(C(=O)O)N1CCC(O)(c2cccnc2)CC1` (stereo not drawn): -3.34%.
